This note sets out measurements from publication PMC3523389 (The Journal of pharmacology and experimental therapeutics, 2012).

The assay has as its target T1, microsomal prostaglandin E2 synthase-1 (mPGES-1) (Homo sapiens, UniProt O14684).
T1 sequence (O14684 1-152): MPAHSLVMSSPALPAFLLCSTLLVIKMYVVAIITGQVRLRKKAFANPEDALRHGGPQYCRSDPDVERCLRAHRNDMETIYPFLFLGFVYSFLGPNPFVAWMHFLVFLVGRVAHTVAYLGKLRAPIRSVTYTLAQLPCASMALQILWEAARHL
Description: cell-free mPGES-1 activity assay in A549 microsomes, […] inhibition at […]. It is filed as cell-based. The conditions noted are these: A549, read-out: % inhibition at 10 μM.

Take `CC(C)c1ccc2c(c1)c(SC(C)(C)C)c(CC(C)(C)C(=O)O)n2Cc1ccc(Cl)cc1` [MK-886, 3-[1-(4-chlorobenzyl)-3-t-butylthio-5-isopropylindol-2-yl]-2,2-dimethylpropanoic acid]: the inhibition (commonly the share of the control response that was lost under treatment) at 10 µM was 74.5 ± 1.5%.
